Values quoted from earlier work in US20130337047A1, “COMPOSITIONS FOR TREATING ORAL AND PERIODONTAL INFECTIONS” (ZarzaTech, Inc., priority 2012, published 2013).
Structures can show the parent of a compound that is named as a salt.

What was measured:
[1] = system: gingivitis
[2] = system: crevicular neutrophils; details: humans, topical 0.5% oral rinse

CN/C(=N/CCSCc1nc[nH]c1C)NC#N [cimetidine HCL]
Anti-gingivitis activity ([1]; dose response study, dog gingivitis model): significant anti-gingivitis activity that increased with increasing dose
Prevention of gingivitis ([1]; prevention study, same dog model): not conclusive

CN/C(=N/CCSCc1nc[nH]c1C)NC#N [cimetidine]
Antiplaque activity and tooth stain ([1]; dog gingivitis model): no antiplaque activity or increase in tooth stain
Gingival inflammation and gingival bleeding ([1]; dog gingivitis model): significantly reduced
Gingivitis ([1]; dog gingivitis model): reduced gingivitis
Antibacterial function of crevicular neutrophils [2]: enhanced
Clinical gingivitis benefit [2]: no clinical gingivitis benefit
